Results taken from publication PMC6319706 (PLoS ONE, 2019).
Where two headings read alike, the source gives them in different places.

What was measured:
mouse adult α1β1εδ nAChR [1] = target: T1, mouse adult α1β1εδ nAChR (Mus musculus, UniProt P02716+P04756+P09690+P20782); assay: cell-based; assay type: cell-based
human α7 nAChR = human α7 nAChR (Homo sapiens, UniProt P36544); assay: cell-based
mouse 5-HT3AR [2] = target: T2, mouse 5-HT3AR (Mus musculus, UniProt P23979); assay: cell-based; assay type: cell-based
mouse adult α1β1εδ nAChR [3] = target: T1, mouse adult α1β1εδ nAChR; assay type: cell-based
mouse α3β2γ2 GABAAR = mouse α3β2γ2 GABAAR (Mus musculus, UniProt P22723+P26049+P63137); assay: cell-based; conditions: for inhibition at 100 µM: read-out: inhibition of GABA-evoked currents
α1β3γ2 GABAAR = α1β3γ2 GABAAR (Mus musculus, UniProt P62812+P63080); assay type: binding
mouse 5-HT3AR [4] = target: T2, mouse 5-HT3AR; conditions: cited from earlier work
human 5-HT3AR = conditions: cited from earlier work
GABAAR = conditions: cited from earlier work
[5] = system: end-plate muscle type nAChRs; conditions: cited from earlier work

COc1cc2c(cc1O)[C@@H](Cc1ccc(O)c(Oc3cc4c(cc3OC)CCN[C@H]4Cc3ccc(O)cc3)c1)NCC2 [BBIQA1]
IC50 (mouse adult α1β1εδ nAChR [1]): 750 nM
nH (Hill slope) (mouse adult α1β1εδ nAChR [1]): -0.96 ± 0.16
IC50 (human α7 nAChR): 1700 nM
nH (Hill slope) (human α7 nAChR): -0.83 ± 0.17
IC50 (mouse 5-HT3AR [2]): 119 nM
fold less active than d-TC (mouse 5-HT3AR [2]): 5 fold
nH (Hill slope) (mouse 5-HT3AR [2]): -1.06 ± 0.09
effect on maximal acetylcholine response (in words) (mouse adult α1β1εδ nAChR [3]): reduces the maximal acetylcholine response
inhibition at 100 µM (mouse α3β2γ2 GABAAR): 40 to 50%
competition with Alexa Fluor 546 αCtx binding (in words) (α1β3γ2 GABAAR): comparable affinities

COc1ccc2cc1Oc1cc3c(cc1O)CCN[C@H]3Cc1ccc(cc1)Oc1c(O)c(OC)cc3c1[C@@H](C2)[N+](C)(C)CC3 [BBIQA2]
IC50 (mouse adult α1β1εδ nAChR [1]): 1750 nM
fold less potent than BBIQA1 and d-TC (mouse adult α1β1εδ nAChR [1]): ~ 2 fold
nH (Hill slope) (mouse adult α1β1εδ nAChR [1]): -1.04 ± 0.21
IC50 (human α7 nAChR): 3080 nM
nH (Hill slope) (human α7 nAChR): -0.94 ± 0.29
IC50 (mouse 5-HT3AR [2]): 1970 nM
fold less active than d-TC (mouse 5-HT3AR [2]): 87 fold
nH (Hill slope) (mouse 5-HT3AR [2]): -1.83 ± 0.01
effect on maximal acetylcholine response (in words) (mouse adult α1β1εδ nAChR [3]): reduces the maximal acetylcholine response
inhibition at 100 µM (mouse α3β2γ2 GABAAR): 40 to 50%
competition with Alexa Fluor 546 αCtx binding (in words) (α1β3γ2 GABAAR): comparable affinities

COc1cc2c3cc1Oc1cc(ccc1O)C[C@@H]1c4c(cc(OC)c(O)c4Oc4ccc(cc4)C[C@@H]3N(C)CC2)CC[N+]1(C)C [d-TC, d-tubocurarine, reference compound]
IC50 (mouse adult α1β1εδ nAChR [1]): 810 nM
nH (Hill slope) (mouse adult α1β1εδ nAChR [1]): -1.87 ± 0.41
IC50 (human α7 nAChR): 2030 nM
nH (Hill slope) (human α7 nAChR): -1.39 ± 0.21
IC50 (mouse 5-HT3AR [2]): 22.6 nM
nH (Hill slope) (mouse 5-HT3AR [2]): -1.19 ± 0.21
effect on maximal acetylcholine response (in words) (mouse adult α1β1εδ nAChR [3]): reduces the maximal acetylcholine response
inhibition of GABA-evoked currents (mouse α3β2γ2 GABAAR): almost completely inhibited
inhibition at 100 µM (mouse α3β2γ2 GABAAR): 90%
competition with Alexa Fluor 546 αCtx binding (in words) (α1β3γ2 GABAAR): comparable affinities
IC50 (mouse 5-HT3AR [4]): 11.4 to 13 nM
IC50 (human 5-HT3AR): 1800 nM
inhibition of GABAAR (in words) (GABAAR): inhibits GABAAR
fold higher affinity of orthosteric α/ε (or α/γ) site than orthosteric α/δ site [5]: 100 fold

α-bungarotoxin [αBgt, reference compound]
effect on maximal acetylcholine response (in words) (mouse adult α1β1εδ nAChR [3]): did not observe any reduction in the maximal amplitude
